Entries after “also recorded” stand apart in the source; their conditions may differ.
Columns and labels:
cyclophilins [1] = assay: Prolyl-isomerase inhibition screen on cyclophilins and cyclophilin mutants; format: biochemical, human
Experimental: (§1) IC50 values were calculated to be the value at which 50% inhibition was achieved on each compound's non-linear regression fitted curve.

cyclophilins [2] = assay: Anisotropy binding assay of fluorescein-labeled macrocycles; parameters: species or system human; settings: 0.5 nM fluorescein-labeled macrocycle
Experimental: Final assay volume was 100 μL with 0.25% DMSO. Fluorescence anisotropy was then measured using a Tecan Spark® plate reader using 492 nm/523 nm excitation/emission settings.

HeLa cells = assay: Fluorescence microscopy on HeLa cells; format: cell-based, human; settings: Cy5 labeled compound 6 μM
Experimental: Fluorescence microscopy on Hela cells. Into 96 well black, clear bottom TC treated plates, cells were seeded in Dulbecco's Modified Eagle Medium (DMEM) supplemented with 10% fetal bovine serum 24 hours prior at a density where wells were ˜80% confluent at time of experiment. Media was removed and cells were then stained with 50 μL of mixture containing Cy5 labeled compound (6 μM) in Kreb's ringer solution HEPES buffered pH 7.2 (KRB), for 1 hour at 37° C. Then, 50 μL Hoechst 33342 (8 μM) and Mitotracker Green FM (0.1 μM) in KRB was added directly to wells containing cells and incubated for 15 minutes at 37° C. Media was removed and cells were washed two times with 100 μL KRB. Cells were then kept adherent to the wells in 100 μL KRB for imaging. Fluorescence microscopy was conducted on an Opera Phenix Plus High-Content Screening System, using Alexa 488, Alexa 647, and Hoescht 33342 channels. Images were analyzed using Harmony 4.9.

[3] = system: mPTP opening in isolated mouse liver mitochondria; assay: Mitochondrial calcium retention capacity assay; format: cell-based; settings: 2 μM CsA, 10 μM B52-Cy5, 10 μM *B52-Cy5, 20 μM B53-Cy5, 20 μM *B53-Cy5; pulses of 60 μM CaCl2; compared to DMSO control
Experimental: Isolation of mouse liver mitochondria: All procedures used in animal studies were approved by the Institutional Animal Care and Use Committee at Massachusetts General Hospital. Female C57B1/6 J mice (Jackson Labs) age 10-12 weeks were anesthetized by isoflurane. The liver from one mouse was rinsed in ice-cold PBS, minced in ice-cold isolation buffer containing 0.28 M sucrose, 10 mM Hepes-KOH pH 7.2, 0.2 mM EDTA and 1% (w/v) BSA, gently homogenized with 4 strokes of a tight-fitting Teflon pestle at 1000 rpm, and then centrifuged for 10 minutes at 600 g at 4° C. The supernatant was recovered and centrifuged for 10 minutes at 8000 g at 4° C. The loose outer buffy coat was rinsed off and the pellet resuspended gently in isolation buffer and the spins were repeated. […] The suspension was kept on ice and all assays performed within 4-6 hours following isolation. Quality control was done with every preparation by adding 250 mcg mitochondria to 500 μl of assay buffer containing 137 mM KCl, 10 mM Hepes-KOH pH 7.2, 2.5 mM MgCl2, 5 mM each of glutamate and malate, and 3 mM KH2PO4. Sequential 150 μM ADP pulses were then delivered. Preparations with respiratory control ratio>6 (as assessed by the ratio of ADP-coupled state 3 respiration to state 4 respiration) were used for further experiments. Measurements were made in a custom-built fluorimeter using a cuvette with a Red Eye oxygen patch (Ocean Optics) and an optical probe that is connected to the fluorimeter.
Mitochondrial calcium retention capacity assays: 250 mcg of mouse liver mitochondria isolated as above were added to […] of assay buffer containing 125 mM KCl, 20 mM Hepes-KOH pH 7.2, 1 mM MgCl2, 5 mM each of glutamate and malate, and 3 mM KH2PO4. 0.5 μM Calcium Green-5N (Molecular Probes) was included to monitor extramitochondrial free Ca^2+. Fluorescence was continuously monitored in the custom-built fluorimeter described above, with excitation 470 nm and emission […]. Sequential 60 μM CaCl2) pulses were delivered until Ca^2+ uptake ceased and an abrupt release of previously taken up Ca^2+ was observed, consistent with mPTP opening. The calcium retention capacity ratio (CRC) was obtained by normalizing the number of Ca^2+ pulses that could be taken up in a given condition by that taken up under DMSO control conditions, as previously described^72.

CypE [4] = biological target: T1, CypE (Homo sapiens, UniProt Q9UNP9); assay: Competition anisotropy (fluorescence polarization) binding assay with A26-Fl; settings: for CypE binding in FP competition (in words): compared to C3A
T1 construct: PPIE (UniProtKB Entry Q9UNP9: res 131-301); host or cells: E. coli BL21(DE3)
Experimental: Competition anisotropy binding assay with A26-Fl: Adapted from previous work^54, into a flat-bottom black untreated 96 well plate (Corning), cyclophilin in assay buffer (25 mM HEPES pH 8.0, 100 mM NaCl, 0.01% Triton X-100) at a predetermined concentration from FIG. 27 was incubated with 0.5 nM A26-Fl for 10 minutes at room temperature. Competitor macrocycle was then added to each well and incubated for 24 hours. Final assay volume was 100 μL with 0.25% DMSO. Fluorescence anisotropy was then measured using a Tecan Spark® plate reader using 492 nm/523 nm excitation/emission settings. Raw fluorescence polarization data was normalized to protein+fluorescent probe and buffer+fluorescent probe and Ki values were calculated using one site-competitive binding equation with Prism 9, importing Kd values from A26-Fl (FIGS. 12A-12C).

CypE [5] = biological target: T1, CypE; assay: Chymotrypsin coupled prolyl-isomerase assay; format: biochemical; settings: for IC50: wild-type CypE, read-out: IC50^CypE
Experimental: as §1

CypD = biological target: T2, CypD (Homo sapiens, UniProt P30405); assay: Chymotrypsin coupled prolyl-isomerase assay; format: biochemical
T2 construct: PPIF (UniProtKB Entry P30405: res 45-207); made in house; host or cells: E. coli BL21(DE3)
Experimental: as §1

T1 sequence (Q9UNP9 131-301): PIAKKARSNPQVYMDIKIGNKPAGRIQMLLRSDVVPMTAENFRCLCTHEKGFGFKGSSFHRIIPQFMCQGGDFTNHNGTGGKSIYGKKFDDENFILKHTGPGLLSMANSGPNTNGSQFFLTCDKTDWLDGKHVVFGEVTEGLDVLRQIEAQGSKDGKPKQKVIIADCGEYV
T2 sequence (P30405 45-207): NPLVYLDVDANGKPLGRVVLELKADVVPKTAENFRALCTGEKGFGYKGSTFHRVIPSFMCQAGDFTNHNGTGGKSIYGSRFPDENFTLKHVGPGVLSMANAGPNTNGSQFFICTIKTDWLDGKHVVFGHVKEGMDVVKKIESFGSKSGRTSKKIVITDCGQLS

NC(=O)[C@H]1CCNC(=O)/C=C/C(=O)N2CCC[C@](Cc3ccccc3)(C2)C(=O)N[C@H](Cc2ccc(-c3ccc(CC(C(=O)O)C(=O)O)cc3)cc2)C(=O)NCc2ccccc2CC(=O)N1 [*B52-A]
inhibition of cyclophilins tested (in words) (cyclophilins [1]): no substantial inhibition activity; also recorded: did not inhibit any cyclophilin

NC(=O)[C@H]1CCNC(=O)/C=C/C(=O)N2CCC[C@](Cc3ccccc3)(C2)C(=O)N[C@H](Cc2ccc(-c3ccc(C(CC(=O)O)CC(=O)O)cc3)cc2)C(=O)NCc2ccccc2CC(=O)N1 [*B53-A]
inhibition of cyclophilins tested (in words) (cyclophilins [1]): no substantial inhibition activity; also recorded: did not inhibit any cyclophilin

O=C1/C=C/C(=O)N2CCC[C@](Cc3ccccc3)(C2)C(=O)N[C@@H](Cc2ccco2)C(=O)NCc2ccccc2CC(=O)N[C@H](C(=O)NCCCOCCOCCOCCCNC(=O)c2ccc3c(c2)C(=O)OC32c3ccc(O)cc3Oc3cc(O)ccc32)CCN1 [Compound A26-Fl]
binding to five non-prolyl isomerase active cyclophilins (PPIL2, PPIL3, PPIL4, PPIL6, SDCCAG-10) (cyclophilins [2]): very weak or no binding
binding to prolyl-isomerase-active cyclophilins (in words) (cyclophilins [2]): promiscuously binds

NCCOCCNC(=O)[C@@H]1CCNC(=O)/C=C/C(=O)N2CCC[C@](Cc3ccccc3)(C2)C(=O)N[C@@H](Cc2ccc(-c3ccccc3)cc2)C(=O)NCc2ccccc2CC(=O)N1 [Compound B2]
cyclophilin selectivity profile (in words) (cyclophilins [1]): selectivity over cyclophilins with sterically occluded S2 pockets

NCCOCCNC(=O)[C@@H]1CCNC(=O)/C=C/C(=O)N2CCC[C@](Cc3ccccc3)(C2)C(=O)N[C@@H](Cc2ccc(-c3ccc(CCC(=O)O)cc3)cc2)C(=O)NCc2ccccc2CC(=O)N1 [Compound B23]
cyclophilin selectivity profile (in words) (cyclophilins [1]): selectivity over non-lysine-containing PPIL1, Cyp40, CypC, and PPWD1

NCCOCCNC(=O)[C@@H]1CCNC(=O)/C=C/C(=O)N2CCC[C@](Cc3ccccc3)(C2)C(=O)N[C@@H](Cc2ccc(-c3ccc(C#CC(=O)O)cc3)cc2)C(=O)NCc2ccccc2CC(=O)N1 [Compound B25]
cyclophilin selectivity profile (in words) (cyclophilins [1]): selectivity over non-lysine-containing PPIL1, Cyp40, CypC, and PPWD1

N#CCc1ccc(-c2ccc(C[C@@H]3NC(=O)[C@]4(Cc5ccccc5)CCCN(C4)C(=O)/C=C/C(=O)NCC[C@@H](C(=O)NCCOCCN)NC(=O)Cc4ccccc4CNC3=O)cc2)cc1C(=O)O [Compound B51]
cyclophilin selectivity profile (in words) (cyclophilins [1]): hampers the selectivity
inhibition of cyclophilins tested (in words) (cyclophilins [1]): loss of potency

NC(=O)[C@@H]1CCNC(=O)/C=C/C(=O)N2CCC[C@](Cc3ccccc3)(C2)C(=O)N[C@@H](Cc2ccc(-c3ccc(CC(C(=O)O)C(=O)O)cc3)cc2)C(=O)NCc2ccccc2CC(=O)N1 [Compound B52-A]
cyclophilin selectivity profile (in words) (cyclophilins [1]): retain the same selectivity profile

CN1/C(=C/C=C/C=C/C2=[N+](CCCCCC(=O)NCCNC(=O)[C@@H]3CCNC(=O)/C=C/C(=O)N4CCC[C@](Cc5ccccc5)(C4)C(=O)N[C@@H](Cc4ccc(-c5ccc(CC(C(=O)O)C(=O)O)cc5)cc4)C(=O)NCc4ccccc4CC(=O)N3)c3ccccc3C2(C)C)C(C)(C)c2ccccc21 [Compound B52-Cy5]
cyclophilin selectivity profile (in words) (cyclophilins [1]): retain the same selectivity profile
mitochondrial localization (overlap with Mitotracker Green) (HeLa cells): poor mitochondrial localization and fluorescence
plasma membrane / mammalian cell permeability (HeLa cells): not observed
calcium retention capacity prior to mPTP opening [3]: increased calcium retention capacity

O=C1/C=C/C(=O)N2CCC[C@](Cc3ccccc3)(C2)C(=O)N[C@@H](Cc2ccc(-c3ccc(CC(C(=O)O)C(=O)O)cc3)cc2)C(=O)NCc2ccccc2CC(=O)N[C@H](C(=O)NCCCOCCOCCOCCCNC(=O)c2ccc3c(c2)C(=O)OC32c3ccc(O)cc3Oc3cc(O)ccc32)CCN1 [Compound B52-Fl]
binding to five non-prolyl isomerase active cyclophilins (PPIL2, PPIL3, PPIL4, PPIL6, SDCCAG-10) (cyclophilins [2]): very weak or no binding
binding to prolyl-isomerase-active cyclophilins (in words) (cyclophilins [2]): selective binding for CypD

NC(=O)[C@@H]1CCNC(=O)/C=C/C(=O)N2CCC[C@](Cc3ccccc3)(C2)C(=O)N[C@@H](Cc2ccc(-c3ccc(C(CC(=O)O)CC(=O)O)cc3)cc2)C(=O)NCc2ccccc2CC(=O)N1 [Compound B53-A]
cyclophilin selectivity profile (in words) (cyclophilins [1]): retain the same selectivity profile

CN1/C(=C/C=C/C=C/C2=[N+](CCCCCC(=O)NCCNC(=O)[C@@H]3CCNC(=O)/C=C/C(=O)N4CCC[C@](Cc5ccccc5)(C4)C(=O)N[C@@H](Cc4ccc(-c5ccc(C(CC(=O)O)CC(=O)O)cc5)cc4)C(=O)NCc4ccccc4CC(=O)N3)c3ccccc3C2(C)C)C(C)(C)c2ccccc21 [Compound B53-Cy5]
cyclophilin selectivity profile (in words) (cyclophilins [1]): retain the same selectivity profile
mitochondrial localization (overlap with Mitotracker Green) (HeLa cells): poor mitochondrial localization and fluorescence
plasma membrane / mammalian cell permeability (HeLa cells): not observed
calcium retention capacity prior to mPTP opening [3]: increased calcium retention capacity

O=C(O)CC(CC(=O)O)c1ccc(-c2ccc(C[C@@H]3NC(=O)[C@]4(Cc5ccccc5)CCCN(C4)C(=O)/C=C/C(=O)NCC[C@@H](C(=O)NCCCOCCOCCOCCCNC(=O)c4ccc5c(c4)C(=O)OC54c5ccc(O)cc5Oc5cc(O)ccc54)NC(=O)Cc4ccccc4CNC3=O)cc2)cc1 [Compound B53-Fl]
binding to five non-prolyl isomerase active cyclophilins (PPIL2, PPIL3, PPIL4, PPIL6, SDCCAG-10) (cyclophilins [2]): very weak or no binding
binding to prolyl-isomerase-active cyclophilins (in words) (cyclophilins [2]): selective binding for CypD

CC(=O)c1ccc(-c2ccc(C[C@@H]3NC(=O)[C@]4(Cc5ccccc5)CCCN(C4)C(=O)/C=C/C(=O)NCC[C@@H](C(N)=O)NC(=O)Cc4ccccc4CNC3=O)cc2)cc1B(O)O [Compound C1A]
CypE binding in FP competition (in words) (CypE [4]): attenuated binding to CypE; also recorded: decreased potency for CypE
CypE potency and selectivity in prolyl isomerase assay (in words) (CypE [5]): loss of potency and selectivity for CypE
IC50 (CypE [5]): 900 nM

CC(=O)c1cc(-c2ccc(C[C@@H]3NC(=O)[C@]4(Cc5ccccc5)CCCN(C4)C(=O)/C=C/C(=O)NCC[C@@H](C(N)=O)NC(=O)Cc4ccccc4CNC3=O)cc2)ccc1B(O)O [Compound C2A]
CypE binding in FP competition (in words) (CypE [4]): attenuated binding to CypE; also recorded: decreased potency for CypE

NC(=O)[C@@H]1CCNC(=O)/C=C/C(=O)N2CCC[C@](Cc3ccccc3)(C2)C(=O)N[C@@H](Cc2ccc(-c3cccc(B(O)O)c3)cc2)C(=O)NCc2ccccc2CC(=O)N1 [Compound C6A]
decrease in potency relative to C3A (CypE [4]; FP competition with A26-Fl against CypE): 100 fold
CypE binding in FP competition (in words) (CypE [4]): attenuated inhibition of CypE
IC50 (CypE [5]): 4000 nM

CC(=O)NCCNC(=O)CCCCCN1\C(=C/C=C/C=C/C2=[N+](C)c3ccccc3C2(C)C)C(C)(C)c2ccccc21 [Cy5-enAc, reference compound]
mitochondrial localization (overlap with Mitotracker Green) (HeLa cells): good mitochondrial localization
CypD prolyl-isomerase inhibition (in words) (CypD): does not inhibit CypD

Reference: US20250109165A1, “CYCLOPHILIN INHIBITORS AND USES THEREOF” (The Broad Institute, Inc., priority 2022, published 2025)
